In article PMC12047801, “Disrupting the OTUD4-USP7 deubiquitinase complex to suppress herpesvirus replication: a novel antiviral strategy” (PLOS Pathogens, 2025):
Values joined by “and” are separate entries in the source; they are usually repeats but may differ in a detail not shown here. Equal values may be shown once. “Also recorded” adds a separate entry of the source. Read-outs that look alike come from different tables or passages of the source.

Tests used:
[1] = tested on: interaction between OTUD4 and USP7-TRAF; test: GST pull-down competition assay, human USP7-TRAF and FLAG-OTUD4; assay type: binding; conditions: 100 μM, 4 h
[2] = tested on: KSHV lytic reactivation in OTUD4- or USP7-knockdown SLK.iBAC-GFP cells; assay type: cell-based
[3] = tested on: interaction between murine USP7-TRAF and murine OTUD4; assay type: binding; conditions: GST pull-down
[4] = tested on: interaction between USP7 and ICP0; assay type: cell-based
[5] = tested on: KSHV lytic gene expression in SLK.iBAC-GFP cells; assay type: cell-based
MHV68 in NIH3T3 cells = assay type: cell-based
[6] = tested on: OTUD4-USP7 interaction in FLAG-OTUD4-expressing SLK.iBAC-GFP cells; assay type: cell-based
[7] = tested on: KSHV lytic replication in BCBL-1-Tet-K-RTA cells; assay type: cell-based
[8] = tested on: KSHV latent gene transcription in BCBL-1 cells; assay type: cell-based
USP7-TRAF domain = biological target: T1, USP7-TRAF domain (Homo sapiens, UniProt Q93009); test: Surface plasmon resonance (SPR) analysis of peptide binding to USP7-TRAF
T1 construct: The TRAF domain of human and murine USP7 (1-208 aa) was subcloned into pGEX-6p-1; GST (N); made in house; host or cells: E. coli BL21 (DE3)

[9] = tested on: KSHV lytic gene expression in BCBL-1-Tet-K-RTA cells; assay type: cell-based
[10] = tested on: KSHV lytic replication in SLK.iBAC-GFP cells transduced with vector control or OTUD4; assay type: cell-based; set-up: KSHV infectious units: unit not given here
[11] = tested on: KSHV-RTA-WT lytic reactivation; assay type: cell-based
[12] = tested on: interaction between USP7 and MDM2; assay type: cell-based
RTA in HEK293T cells = assay type: cell-based, KSHV
[13] = tested on: interaction between USP7 and p53; assay type: cell-based
[14] = tested on: KSHV genome replication in BCBL-1 cells; test: Relative viral genomic copy number (latency) by qPCR in BCBL-1 cells; assay type: cell-based; conditions: 100 μM, 48 h
[15] = tested on: KSHV viral proteins in BCBL-1-Tet-K-RTA cells; assay type: cell-based; conditions: 100 μM
RTA in iSLK cells = assay type: cell-based, KSHV
MHV68 in MLF cells = assay type: cell-based
[16] = tested on: KSHV lytic reactivation in SLK.iBAC-GFP cells; assay type: cell-based
Method: (A) Graphical illustration showing the rationale underlying our peptide design. (B) Surface Plasmon Resonance (SPR) analysis assessing the interaction of the USP7-TRAF domain with the designed peptides p2 and p8. (C) SLK.iBAC-GFP cells were induced with doxycycline (Dox, 1 μg/mL) and sodium butyrate (0.5 mM) in the presence of the Tat fusion peptides (100 μM). All the peptides were fused to an N-terminal Tat47-57 peptide ([…]) via a flexible GG linker. The supernatants containing infectious virions were collected 48 h post-induction and used to infect HEK293T cells. KSHV infectious units were calculated based on the percentage of GFP-positive cells determined by flow cytometry. Data are mean ± s.d. of N = 3 independent biological replicates. (D) SLK.iBAC-GFP cells were induced with doxycycline (Dox, 1 μg/mL) and sodium butyrate (0.5 mM) in the presence of increasing amount of p8 (0, 10, 50, 100 μM). KSHV infectious units were determined 48 h post-induction. Data are mean ± s.d. of N = 3 independent biological replicates. […] Data are mean ± s.d. of N = 3 independent biological replicates. […] Cell viability was assessed by measuring ATP levels 48 h post-induction. Data are mean ± s.d. of N = 3 independent biological replicates.
Peptides p1 to p12 (S1A Fig) were synthesized by Sangon Biotech (Shanghai, China) with 95% purity. The Tat-fused peptides in Fig 1C consisted of the corresponding peptides conjugated to the Tat47-57 peptide ([…]) and two glycine linker residues (QYAOBIO, Suzhou, China). The peptides p8-DRI (nssqsasqnvpprrrqrrkkrGy) and p2-DRI (iesndedavepprrrqrrkkrGy) were synthesized using D-amino acids in a retro-reversed sequence with 95% purity (QYAOBIO, Suzhou, China). The peptide p8-m ([…]) was synthesized with 95% purity (QYAOBIO, Suzhou, China). All the peptides were acetylated at the N-terminus and amidated at the C-terminus to mimic the native peptide structure. The peptides were dissolved in PBS to prepare 1 mM stock solutions for in vitro experiments and 5 mg/ml stock solutions for in vivo experiments.
SLK.iBAC-GFP cells were treated with Dox (1 μg/ml) and sodium butyrate (0.5 mM) to induce lytic reactivation in the presence of indicated peptides (100 μM). The supernatants were collected at the specified time points and used to infect HEK293T cells at appropriate dilutions. The infected cells were collected, fixed, and analyzed by flow cytometry 24 h post-infection. FlowJo 10.0 software was used to analyze the data, and KSHV infectious units were quantified based on the percentage of GFP-positive cells.

SLK.iBAC-GFP cells = assay type: cell-based; conditions: Fig. 1F, 100 μM, 48 h
Method: SLK.iBAC-GFP cells were seeded in a 96-well plate at a density of 1 × 10^5 cells/well. The cells were then treated with doxycycline (Dox, 1 μg/ml) and sodium butyrate (0.5 mM) to induce lytic reactivation in the presence of the indicated peptides (100 μM) for 48 h. After treatment and a 30-min equilibration at room temperature, CellTiter-Glo Reagent (Promega, G7570) was added in equal volumes to culture medium. Plates underwent orbital shaking (2 min) for lysis, followed by a 10-min incubation for signal stabilization and luminescence recording (0.25-1 sec integration).

T1 sequence (Q93009 1-208): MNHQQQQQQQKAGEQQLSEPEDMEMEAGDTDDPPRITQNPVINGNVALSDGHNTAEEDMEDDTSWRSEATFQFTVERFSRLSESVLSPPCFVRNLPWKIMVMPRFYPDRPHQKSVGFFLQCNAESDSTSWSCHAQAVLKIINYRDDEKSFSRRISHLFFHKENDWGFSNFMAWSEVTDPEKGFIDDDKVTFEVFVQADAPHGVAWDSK

Ac-YGRKKRRQRRRGGVNQSASQSSN-NH2 [p8]
Disruption of OTUD4/USP7-TRAF interaction (in words) [1]: effectively blocked the interaction between OTUD4 and USP7-TRAF | Antiviral effect in OTUD4-deficient or USP7-deficient cells (in words) [2]: abolished | Relative inhibitory activity on murine USP7-TRAF/murine OTUD4 interaction, p8 vs p8-m (in words) ([3]; 100 μM (S5E Fig)): slightly stronger inhibitory activity | Disruption of murine USP7-TRAF/murine OTUD4 interaction (in words) ([3]; 100 μM, 4 h (S5E Fig)): effectively disrupted the interaction | Effect on USP7-ICP0 interaction (in words) [4]: did not affect the interactions | ORF25 gene expression [5]: 0.63 and 0.71 and 0.72 | ORF26 gene expression [5]: 0.64 and 0.65 and 0.71 | ORF50 gene expression [5]: 0.69 and 0.8 | ORF56 gene expression [5]: 0.84 and 0.81 and 0.83 | ORF57 gene expression [5]: 0.74 and 0.75 | Transcription levels of ORF50, ORF56, ORF57, ORF25, ORF26 (in words) [5]: decreased the transcription levels of multiple viral genes | Antiviral activity against MHV68 in NIH3T3 cells (in words) (MHV68 in NIH3T3 cells): potent antiviral activity against MHV68 | ORF9 viral gene expression (MHV68 in NIH3T3 cells): 0.25 and 0.26 | ORF25 viral gene expression (MHV68 in NIH3T3 cells): 0.28 and 0.26 | ORF50 viral gene expression (MHV68 in NIH3T3 cells): 0.24 and 0.22 and 0.27 | Co-localization of OTUD4 and USP7 (in words) [6]: disrupted the co-localization of OTUD4 and USP7 | KSHV genome copies in supernatants [7]: 1.3 and 1.45 and 1.47 | Progeny viral genomic copy number (in words) ([7]; 100 μM, 48 h): reduced progeny viral genomic copy number | ORF71 mRNA expression [8]: 1.01 and 1.03 | ORF72 mRNA expression [8]: 1.27 and 1.18 and 1.09 | ORF73 mRNA expression [8]: 0.87 and 0.86 and 0.96 | KSHV latent gene transcription (in words) ([8]; 100 μM, 48 h): did not affect KSHV latent gene transcription | Binding to the USP7-TRAF domain (in words) (USP7-TRAF domain): specifically bound to the USP7-TRAF domain | ORF25 gene expression [9]: 0.73 and 0.71 | ORF26 gene expression [9]: 0.38 and 0.45 and 0.4 | ORF50 gene expression [9]: 0.4 and 0.44 and 0.49 | ORF56 gene expression [9]: 0.63 and 0.69 and 0.67 | ORF57 gene expression [9]: 0.5 and 0.43 and 0.54 | Transcription of KSHV lytic genes (in words) ([9]; 100 μM): decreased transcription of KSHV lytic genes | Effect on OTUD4-promoted KSHV lytic replication (in words) [10]: negated by p8 | KSHV infectious units [10]: 6.7 and 4.8 and 4.4 and 5.5 and 6.5 and 6.3 | KSHV infectious units [11]: 1.8648 and 1.9224 and 1.6488 | Effect on USP7-MDM2 interaction (in words) [12]: did not affect the interactions | Effect on OTUD4-enhanced RTA protein level (in words) (RTA in HEK293T cells): countered the promoting effect | Effect on USP7-p53 interaction (in words) [13]: did not affect the interactions | KSHV genome replication in latency (in words) [14]: did not affect KSHV latent gene transcription or genome replication | Viral protein levels (in words) [15]: lower levels of viral proteins | RTA protein level in iSLK cells (in words) (RTA in iSLK cells): reduced the protein level of RTA | Antiviral activity against MHV68 in MLF cells (in words) (MHV68 in MLF cells): potent antiviral activity against MHV68 | ORF9 viral gene expression (MHV68 in MLF cells): 0.54 and 0.47 and 0.53 | ORF25 viral gene expression (MHV68 in MLF cells): 0.37 and 0.47 and 0.44 | ORF50 viral gene expression (MHV68 in MLF cells): 0.77 and 0.82 and 0.65 | KSHV progeny virion production (in words) ([16]; S2E Fig, 100 μM): significantly reduced KSHV progeny virion production | Inhibition of KSHV lytic reactivation (in words) ([16]; Tat-fused peptides, 100 μM or dose series, 48 h post-induction): effectively inhibited KSHV lytic reactivation in a dose-dependent manner; also recorded: efficiently suppressed KSHV lytic reactivation | Cytotoxicity (in words) (SLK.iBAC-GFP cells): minimal cytotoxicity | Cell viability (ATP levels) (SLK.iBAC-GFP cells; replicate 1): 91.6982 | Cell viability (ATP levels) (SLK.iBAC-GFP cells; replicate 2): 88.8817 | Cell viability (ATP levels) (SLK.iBAC-GFP cells; replicate 3): 95.2836
